US20200055871A1, “ACTIVATORS OF THE RETINOIC ACID INDUCIBLE GENE "RIG-I" PATHWAY AND METHODS OF USE THEREOF” (Kineta Immuno-Oncology LLC, priority 2018, published 2020)
Read-outs that look alike come from different tables or passages of the source.

How the values were obtained:
[1] = test system: RIG-I deficient CT26 RIG-I−/− cells; test: CXCL10 secretion by RIG-I deficient CT26 RIG-I−/− cells (ELISA); format: cell-based, murine; details: compound 5 to 20 μM, 24 h
Method: (§1) The CT26 murine colon carcinoma cell line (ATCC) was used to evaluate the induction of CXCL10 secretion. CXCL10 is an important chemokine in tumor immune biology that recruits tumor-specific T cells to the tumor. To confirm that compound-mediated CXCL10 production was RIG-I specific, RIG-1 deficient CT2-RIG-I−/−cells were generated by Kineta Inc. using CRISPR technology.
(§2) CT26 cells were seeded at a density of 1×10^4 cells per well on a 96-well tissue culture plate in 100 μL of cell culture and cells were incubated at 37° C. and 5% CO2 for 24 hr. Next, CT26 cells were treated with compounds at the indicated concentrations. CXCL10 was quantified by ELISA from supernatants taken 24 h after compound stimulation by use of the CXCL10 Duo Set ELISA kit (Cat #DY466, R&D, Minneapolis, Minn., USA) according to the manufacturer's instructions.
(§3) CXCL10 secretion by CT26 cells in response to compounds (in an amount of 5 to 20 μM) of the present disclosure is shown in Table 8. The compound-induced CXCL10 production was RIG-I dependent, since none of the compounds mediated CXCL10 secretion in RIG-I deficient CT26 RIG-I−/−cells (about 0 pg/mL of CXCL10, or below the level of quantitation). The compounds (10 μM, *20 μM, **5 μM) are indicated in the table as follows: “≠” indicates less than 100 pg/mL; “+” indicates 100-199 pg/mL; “++” indicates 200-399 pg/mL; “+++” indicates 400-799 pg/mL; “++++” indicates 800 to 1599 pg/mL; “+++++” indicates greater than or equal to 1600 pg/ml.

[2] = test system: IRF3 signaling pathway in THP1-Lucia™ ISG cells; test: THP1-Lucia ISG reporter assay: induction of IRF3-dependent gene expression (secreted luciferase); format: cell-based, human; details: Homo sapiens, THP1-Lucia ISG, read-out: fold increase of IRF3-dependent luciferase activity over background, THP1 ISG; for fold induction at 10 µM: 10 μM compound
Method: The compounds were evaluated in the THP1-Lucia™ ISG (interferon stimulated genes) reporter assay to determine if the compounds activate the IRF3 signaling pathway. The THP1-Lucia™ cells (InvivoGen) express the secreted luciferase (Lucia) reporter gene under the control of an IRF-inducible promoter. The reporter cell line was developed from human monocytic leukemia THP-1 cells.
The promoter was comprised of five IFN-stimulated response elements (ISRE) fused to an ISG54 minimal promoter which is unresponsive to NF-kB or AP-1 pathways. […] The IRF3-deficient THP1-Lucia™ ISG IRF3−/−reporter cell line was generated by CRISPR technology from the parent THP1-Lucia™ ISG reporter cell line.
THP1-Lucia™ ISG cells and IRF3-deficient THP1-Lucia™ ISG IRF3−/−cells were differentiated with PMA (100 ng/ml) and stimulated with compounds at the indicated concentrations (5 to 20 μM), positive control, or not treated (background). Luciferase secretion was quantified using the QUANTI-Luc luciferase assay system (InvivoGen) 18 h after stimulation. Data are shown as fold increase luciferase activity over background in Table 7 and represent the IRF3-dependent ISG54 promoter activity by the THP1-Lucia™ ISG cells in response to compounds. […] The fold increase of compounds (10 μM, *20 μM, **5 μM) induced IRF3 dependent luciferase activity is indicated as follows: “≠” indicates less than 2.4 fold increase; “+” indicates a 2.4-4.9 fold increase; “++” indicates a 5-9.9 fold increase; “+++” indicates a 10-19 fold increase; “++++” indicates a 20-39 fold increase; “+++++” indicates greater than or equal to 40 fold increase.

[3] = test system: murine CT26 colon carcinoma cells; test: RIG-I dependent CXCL10 secretion by CT26 cells (ELISA); format: cell-based; details: supernatant 24 h after stimulation
Method: as §1, §2, §3

[4] = PMA-differentiated cells, 18 h after stimulation

Row | SMILES | CXCL10 secretion, CT26 RIG-I−/− [1] | fold induction at 10 µM [2, 4] | CXCL10 secretion, CT26 ([3]; 10 μM compound) | CXCL10 secretion, CT26 ([3]; 20 μM compound (*)) | fold induction at 20 µM ([2]; 20 μM compound (*), PMA-differentiated cells, 18 h after stimulation) | CXCL10 secretion, CT26 ([3]; 5 μM compound (**)) | fold induction at 5 µM ([2]; 5 μM compound (**), PMA-differentiated cells, 18 h after stimulation) | fold induction at 20 µM ([2]; 18 h)
1 | COc1nc2c(ccc3nc(NC(=O)c4cc5ccccc5cc4OCCCCN4CCOCC4)sc32)s1 [Example 32, N-{11-methoxy-3,10-dithia-5,12-diazatricyclo[7.3.0.0^2,^6]dodeca-1,4,6,8,11-pentaen-4-yl}-3-[4-(morpholin-4-yl)butoxy]naphthalene-2-carboxamide] | − | 10 to 19 | ++ (200-399 pg/mL) |  |  |  |  | 
2 | O=C(Nc1nc2ccc3scnc3c2s1)c1ccc(Cl)c(C(F)(F)F)c1 [Example 7, 4-chloro-N-{3,10-dithia-5,12-diazatricyclo[7.3.0.0^2,^6]dodeca-1,4,6,8,11-pentaen-4-yl}-3-(trifluoromethyl)benzamide] | − | 2.4 to 4.9 | ++++ (800 to 1599 pg/mL) |  |  |  |  | 
3 | CSc1nc2c(ccc3nc(NC(=O)c4ccc5ccccc5c4)sc32)s1 [Example 19, N-[11-(methylsulfanyl)-3,10-dithia-5,12-diazatricyclo[7.3.0.0^2,^6]dodeca-1,4,6,8,11-pentaen-4-yl]naphthalene-2-carboxamide] | − | 10 to 19 |  | +++* (400-799 pg/mL) |  |  |  | 
4 | O=C(Nc1nc2ccc3scnc3c2s1)c1cc2ccccc2cc1OCCN1CCCCC1 [Example 25, N-{3,10-dithia-5,12-diazatricyclo[7.3.0.0^2,^6]dodeca-1,4,6,8,11-pentaen-4-yl}-3-[2-(piperidin-1-yl)ethoxy]naphthalene-2-carboxamide] | − | 2.4 to 4.9 | ++ (200-399 pg/mL) |  |  |  |  | 
5 | O=C(Nc1nc2ccc3scnc3c2s1)c1cc2ccsc2cc1OCCN1CCOCC1 [Example 42, N-{3,10-dithia-5,12-diazatricyclo[7.3.0.0^2,^6]dodeca-1,4,6,8,11-pentaen-4-yl}-6-[2-(morpholin-4-yl)ethoxy]-1-benzothiophene-5-carboxamide] | − | < 2.4 |  | +* (100-199 pg/mL) |  |  |  | 
6 | COc1nc2c(ccc3nc(NC(=O)c4ccc5ccccc5c4)sc32)s1 [Example 22, N-{11-methoxy-3,10-dithia-5,12-diazatricyclo[7.3.0.0^2,^6]dodeca-1,4,6,8,11-pentaen-4-yl}naphthalene-2-carboxamide] | − | 20 to 39 | ++ (200-399 pg/mL) |  |  |  |  | 
7 | CCCCCOc1ccc(C(=O)Nc2nc3ccc4sc(C)nc4c3s2)cc1 [Example 5, N-{11-methyl-3,10-dithia-5,12-diazatricyclo[7.3.0.0^2,^6]dodeca-1,4,6,8,11-pentaen-4-yl}-4-(pentyloxy)benzamide] | − | 5 to 9.9 |  | +* (100-199 pg/mL) |  |  |  | 
8 | CSc1nc2c(ccc3nc(NC(=O)c4cc5ccccc5cc4OCCN4CCOCC4)sc32)s1 [Example 35, N-[11-(methylsulfanyl)-3,10-dithia-5,12-diazatricyclo[7.3.0.0^2,^6]dodeca-1,4,6,8,11-pentaen-4-yl]-3-[2-(morpholin-4-yl)ethoxy]naphthalene-2-carboxamide] | − | 5 to 9.9 |  | ++* (200-399 pg/mL) |  |  |  | 
9 | O=C(Nc1nc2ccc3scnc3c2s1)c1cc2ccccc2cc1OCCN1CC2CC1CO2 (stereo not drawn) [Example 33, N-{3,10-dithia-5,12-diazatricyclo[7.3.0.0^2,^6]dodeca-1,4,6,8,11-pentaen-4-yl}-3-(2-{2-oxa-5-azabicyclo[2.2.1]heptan-5-yl}ethoxy)naphthalene-2-carboxamide] | − |  | ++++ (800 to 1599 pg/mL) |  | 10 to 19 |  |  | 
10 | O=C(Nc1nc2ccc3scnc3c2s1)c1ccc(-c2ccccc2)cc1OCCCCN1CCOCC1 [Example 38, N-{3,10-dithia-5,12-diazatricyclo[7.3.0.0^2,^6]dodeca-1,4,6,8,11-pentaen-4-yl}-3-[4-(morpholin-4-yl)butoxy]-[1,1′-biphenyl]-4-carboxamide] | − | 5 to 9.9 | +++ (400-799 pg/mL) |  |  |  |  | 
11 | O=C(Nc1nc2ccc3scnc3c2s1)c1ccc(-c2ccccc2)cc1 [Example 21, N-{3,10-dithia-5,12-diazatricyclo[7.3.0.0^2,^6]dodeca-1,4,6,8,11-pentaen-4-yl}-[1,1′-biphenyl]-4-carboxamide] | − | 10 to 19 | + (100-199 pg/mL) |  |  |  |  | 
12 | O=C(Nc1nc2ccc3scnc3c2s1)c1cc2ccccc2cc1OCCN1CC2(COC2)C1 [Example 34, N-{3,10-dithia-5,12-diazatricyclo[7.3.0.0^2,^6]dodeca-1,4,6,8,11-pentaen-4-yl}-3-(2-{2-oxa-6-azaspiro[3.3]heptan-6-yl}ethoxy)naphthalene-2-carboxamide] | − | 2.4 to 4.9 |  |  |  | +++** (400-799 pg/mL) |  | 
13 | O=C(Nc1nc2ccc3scnc3c2s1)c1cccc([N+](=O)[O-])c1 [Example 9, N-{3,10-dithia-5,12-diazatricyclo [7.3.0.0^2,^6]dodeca-1,4,6,8,11-pentaen-4-yl}-3-nitrobenzamide] | − | 2.4 to 4.9 | +++ (400-799 pg/mL) |  |  |  |  | 
14 | O=C(Nc1nc2ccc3scnc3c2s1)c1cc2ccccc2cc1OCCNCCO [Example 46, N-{3,10-dithia-5,12-diazatricyclo[7.3.0.0^2,^6]dodeca-1,4,6,8,11-pentaen-4-yl}-3-{2-[(2-hydroxyethyl)amino]ethoxy}naphthalene-2-carboxamide] | − |  | +++ (400-799 pg/mL) |  |  |  | 2.4 to 4.9 | 
15 | COc1nc2c(ccc3nc(NC(=O)c4cc5ccccc5cc4OCCN4CCCCC4)sc32)s1 [Example 30, N-{11-methoxy-3,10-dithia-5,12-diazatricyclo[7.3.0.0^2,^6]dodeca-1,4,6,8,11-pentaen-4-yl}-3-[2-(piperidin-1-yl)ethoxy]naphthalene-2-carboxamide] | − | 10 to 19 | +++ (400-799 pg/mL) |  |  |  |  | 
16 | Cn1ccc2ccc(C(=O)Nc3nc4ccc5scnc5c4s3)cc21 [Example 20, N-{3,10-dithia-5,12-diazatricyclo[7.3.0.0^2,^6]dodeca-1,4,6,8,11-pentaen-4-yl}-1-methyl-1H-indole-6-carboxamide] | − | 10 to 19 | +++ (400-799 pg/mL) |  |  |  |  | 
17 | O=C(Nc1nc2ccc3scnc3c2s1)c1ccc2c(c1)CCCC2 [Example 13, N-{3,10-dithia-5,12-diazatricyclo[7.3.0.0^2,^6]dodeca-1,4,6,8,11-pentaen-4-yl}-5,6,7,8-tetrahydronaphthalene-2-carboxamide] | − |  | +++ (400-799 pg/mL) |  |  |  |  | 5 to 9.9
